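Method: 48-hour compound exposure of cells in 96-well plates, five concentrations, linear interpolation of endpoints. Abbreviation: GI50, concentration required for 50% inhibition of growth.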 Calls of active or inactive are those of the source. No stated cut-off is given here; in the data, active = GI50 up to about 1.1 µM and inactive = higher.
Experiments:
Experiment in all cases: growth of human tumour cells (NCI), 48 h
[1] = tested on: 786-0
[2] = tested on: MDA-MB-435
[3] = tested on: SF-539
[4] = tested on: IGROV-1
[5] = tested on: UACC-257
[6] = tested on: HOP-62
[7] = tested on: OVCAR-5
[8] = tested on: UO-31
[9] = tested on: MCF7
[10] = tested on: EKVX
[11] = tested on: CCRF-CEM
[12] = tested on: RXF 393
[13] = tested on: SR
[14] = tested on: CAKI-1
[15] = tested on: COLO 205
[16] = tested on: U-251
[17] = tested on: HL-60
[18] = tested on: HOP-92
[19] = tested on: K562
[20] = tested on: HCC 2998

Measured: GI50

Clc1cccc(N/N=N/c2ccc(-c3nc4ccccc4s3)cc2)c1
inactive: [1] 22.2 µM | [2] 30.6 µM | [3] 82.8 µM | [4] 21.4 µM | [5] > 100 µM | [6] > 100 µM | [7] > 100 µM | [8] > 100 µM | [9] 47.5 µM | [10] > 100 µM | [11] 21 µM | [12] 27.2 µM | [13] 20.9 µM | [14] 53.8 µM | [15] > 100 µM | [16] 36.9 µM | [17] 6.34 µM | [18] 20.4 µM | [19] 28.6 µM | [20] 64.4 µM

Cc1ccc(S(=O)(=O)NC(CO)C(=O)O)cc1 (stereo not given)
inactive: [1] > 100 µM | [2] > 100 µM | [3] > 100 µM | [4] > 100 µM | [5] > 100 µM | [6] > 100 µM | [7] > 100 µM | [8] > 100 µM | [9] > 100 µM | [10] > 100 µM | [11] > 100 µM | [12] > 100 µM | [13] > 100 µM | [14] > 100 µM | [15] > 100 µM | [16] > 100 µM | [17] > 100 µM | [18] > 100 µM | [19] > 100 µM | [20] > 100 µM

CC(=O)C1(Cc2cccc3ccccc23)S(=O)(=O)OCCOS1(=O)=O
inactive: [1] 23.5 µM | [2] 14.7 µM | [3] 17.9 µM | [4] 4.69 µM | [5] 4.11 µM | [6] 20.9 µM | [7] 17.6 µM | [8] 15.8 µM | [9] 20.8 µM | [10] 18.5 µM | [11] 38.7 µM | [12] 12.7 µM | [13] 18.3 µM | [14] 15.9 µM | [15] 17 µM | [16] 16.7 µM | [17] 15.2 µM | [18] 15.5 µM | [19] 28.4 µM | [20] 17.3 µM

CN(C)CCCNC(=O)c1c(O)c2ccccc2n(C)c1=O
inactive: [1] 65.3 µM | [2] 61.8 µM | [3] 78.3 µM | [4] > 100 µM | [5] 67.5 µM | [6] 36.3 µM | [7] 63 µM | [8] 9.27 µM | [9] 43.9 µM | [10] > 100 µM | [11] 43.1 µM | [12] 35.5 µM | [13] 41.5 µM | [14] 41.4 µM | [15] 39.5 µM | [16] 39.5 µM | [17] 36.5 µM | [18] 14.3 µM | [19] 79.3 µM | [20] 82.2 µM
